Results as given in patent US10980824B2, “Pharmaceutical composition comprising quercetin-3-O-β-D-xylopyranoside for preventing or treating liver disease” (Hongcheon Institute of Medical Herb, priority 2016, dated 2021).

Legend:
Assay type in all cases: in vivo, C57BL/6N mice
ApoB gene = test: Real-time PCR of lipid metabolism gene expression in liver: ApoB; details: liver mRNA, relative to Pair-fed group; EtOH+B group, 1 mg/kg oral 10 days (FIG. 11)
Description: (§1) 8-week-old C57BL/6N mice were purchased from DAEHAN BIOLINK to be used for efficacy evaluation and quarantined and acclimated in a vivarium of HONGCHEON INSTITUTE OF MEDICAL HERB for 7 days (relative temperature: 23±2° C., relative humidity: 50±5%, and a 12 h light-dark cycle) prior to the start of experimentation. Among them, 18 male mice with no abnormal symptoms were selected and used.
During a liquid diet adaptation period, a control group was restrictedly fed with a Lieber-DeCarli'82 control liquid diet (F1259SP, Bio-serv), and an alcohol-fed group was restrictedly fed with a Lieber-DeCarli'82 ethanol liquid diet (F1258SP, Bio-serv) using a Liquid diet feeding tube (9019, Bio-serv), and the diets were replaced with new ones at a preset time between 3 P.M. and 5 P.M. […]
Real-time quantitative PCR was performed using a 7500 Real-time Thermal Cycler (Applied Biosystems, USA) with SYBR Green (Applied Biosystems, USA) to measure gene expression. […]
PCR amplification steps as described below were repeated for up to 40 cycles. […] Values were recorded after extension at every cycle.
After completion of all cycles, melting curve analysis was carried out to verify specificity of the primers. The results were analyzed using the One step system software v2.1 provided by Applied Biosystems.

TNF-α = test: Inhibitory effect on TNF-α in alcoholic steatosis mice; details: liver tissue, vs alcohol-fed group (FIG. 12A)
Description: The level of TNF-α in liver tissue was measured by using RT-PCR and ELISA as described above in Example 2-7 to analyze whether the amount of TNF-α induced by alcohol was reduced due to treatment of quercetin-3-O-β-D-xylopyranoside.
A commercially available ELISA kit purchased from R&D Systems (Minneapolis, Minn.) was used.

CPT-1 = test: Western blot of CPT-1 in liver tissue; details: compound group vs alcohol-fed group
Description: (§2) Expression of p-AMPKα, p-ACC, and CPT-1, which regulate intrahepatic lipid metabolism, was analyzed by western blot analysis to understand the mechanism involved in pathogenesis of alcoholic steatosis in detail. The specific western blot analysis method is as follows.
(§3) First, a mouse liver homogenate was prepared by using a RIPA buffer solution including a protease and tyrosine phosphatase inhibitor cocktail (Sigma). Protein concentrations of lysates were determined using a Bicinchoninic (BCA) Protein Assay Kit (Thermo Scientific, IL, USA) according to the manufacturer's instructions. Isolated soluble proteins ([…]) were separated on an 8% to 15% SDS-polyacrylamide gel. The separated proteins were electroblotted on a nitrocellulose transfer membrane (Bio-Rad, Hercules, Calif., USA). The membrane was incubated with 5% non-fat dry milk for 1 hour and then probed for antigens using antibodies diluted to 1:1,000, and was incubated with anti-pAMPKα, anti-AMPKα, anti-PACC, anti-ACC, anti-CYP2E1, anti-CPT1a (Cell Signaling Technology), and anti-β-actin (Santa Cruz Biotechnology) at 4° C. for 18 hours. […] Band density was measured using ImageJ (National Institutes of Health, Bethesda, Md., USA) and expressed as a multiple relative to β-actin.

[1] = Body weight, feed intake and excised organ weight of alcoholic steatosis-induced mice; details: 1 mg/kg oral 10 days; conclusion from body and organ weights
Description: as §1
During a liquid diet adaptation period, a control group was restrictedly fed with a Lieber-DeCarli'82 control liquid diet (F1259SP, Bio-serv), and an alcohol-fed group was restrictedly fed with a Lieber-DeCarli'82 ethanol liquid diet (F1258SP, Bio-serv) using a Liquid diet feeding tube (9019, Bio-serv), and the diets were replaced with new ones at a preset time between 3 P.M. and 5 P.M.
After 5 days of the liquid diet adaptation period, the mice were orally administered with 1 mg/kg of quercetin-3-O-β-D-xylopyranoside (test substance) for 10 days and fed with a 5% alcohol liquid diet. At 11th day, between 7 A.M. and 9 A.M., a group not fed with alcohol (hereinafter referred to as Pair-fed group) was orally administered with a 45% maltose dextrin solution, and a group fed with a 5% liquid diet (hereinafter referred to as EtOH-fed) and a group administered with a test substance (hereinafter referred to as EtOH+B group) were orally fed with 31.5% ethanol.
2-1. […]

MCP-1 = test: mRNA level of MCP-1 by RT-PCR; details: alcohol+compound group vs alcohol-fed group (FIG. 14)
Source text: Monocyte chemoattractant protein 1 (MCP-1), called chemokine ligand 2 (CCL2), is one of the key chemokines that regulate pathogeneses of several diseases caused by monocyte infiltration. Meanwhile, interleukin 1 beta (IL1β), also known as a leukocytic endogenous mediator and a lymphocyte activating factor, is a member of the interleukin 1 family of cytokines. The cytokines are produced by activated macrophages at a damaged region of tissue.
Specifically, mRNA levels of MCP-1 and IL-1β were analyzed by using RT-PCR as described above in Example 2-8.

p-AMPKα = test: Western blot of p-AMPKα in liver tissue
Description: as §2, §3

Question: Which “expression level of the ApoB gene” value (ApoB gene) does the source give for O=c1c(O[C@@H]2OC[C@@H](O)[C@H](O)[C@H]2O)c(-c2ccc(O)c(O)c2)oc2cc(O)cc(O)c12 [quercetin-3-O-β-D-xylopyranoside] here?
Answer: 0.8 times

Question: What about the “expression level of RNA of TNF-α” value (TNF-α; 1 mg/kg) of the same compound?
Answer: significantly inhibited

Question: And the “expression level of RNA of TNF-α” value (TNF-α; 10 mg/kg)?
Answer: significantly inhibited

Question: And the CPT-1 level (CPT-1)?
Answer: significantly restored

Question: What about the “toxicity to mice and internal organs” value [1] of the same compound?
Answer: no toxicity

Question: What about the “mRNA level of MCP-1” value (MCP-1) of the same compound?
Answer: significantly reduced

Question: What about the “expression level of pAMPK” value (p-AMPKα; 10 mg/kg (FIGS. 16A and 16B)) of the same compound?
Answer: significantly increased

Question: What about the “expression levels of AMPK protein” value (p-AMPKα; among the groups (FIGS. 16A and 16B)) of the same compound?
Answer: no difference
